Assay results reported in patent publication US9944721B2, “Polysialic acid and use for treatment of neurodegenerative and neuroinflammatory diseases” (RHEINISCHE FRIEDRICH-WILHELMS UNIVERSITÄT BONN, priority 2013, dated 2018).

What was measured:
[1] = system: co-culture of human microglial line and iPS cell derived neurons; assay: Microglial neurotoxicity in human microglia-neuron co-culture, 24 hours (neurite length); type: cell-based; details: 1.5 μM, 24 hours co-culture; FIG. 4D
Procedure: Next, the human microglial line was co-cultured for 24 hours with neurons derived from induced pluripotent stem cells and the effect of low molecular weight polysialic acid (PSA-20; 1.5 μM) on microglial neurotoxicity was evaluated. The human neurons were generated from human induced pluripotent stem cells (iPS cells). In vitro differentiation into neurons was carried out using a short modified protocol, which was used to induce primitive neural precursors. In detail, iPS cells were cultured on feeder cells to form small colonies. Next medium was changed to neural induction medium in the presence of LIF and three small molecules CHIR99021 (inhibitor of GSK-3β) and SB431542 (inhibitor of TGF-β and activin receptors), and compound E (inhibitor of γ-secretase) for 10 days. To expand the neural precursors, cells were dissociated to single cells by accutase and plated on poly-L-ornithine/fibronectin coated cell culture dishes with induction medium in the presence of leukaemia inhibitory factor (LIF), CHIR99021 and SB431542. […] Ten random photographs were taken for each condition by confocal laser scanning microscopy (Fluoview 1000, Olympus) and length of neuronal branches was measured by Neuron J software (NIH).

[2] = system: humanized Siglec-11 transgenic mice; assay: Septic encephalopathy model: TNF-alpha gene transcripts after repeated systemic LPS; type: in vivo; details: 4x LPS plus 4x PSA-20 1 μg per gram body weight i.p., 24 hours after last application
Procedure: Humanized Siglec-11 transgenic mice (Wang Y, 2009, dissertation, University Bonn, uniform resource name: urn:nbn:de:hbz:5N-18095) expressing human Siglec-11 under the Iba1-promoter in microglia and wildtype littermate control mice were used in this experiment. For gene transcript analysis, RNA was isolated from brains with Trizol followed with the RNeasy Mini Kit (Qiagen). Reverse transcription of RNA was performed with SuperScript III reverse transcriptase (Invitrogen) and hexamer random primers (Roche Molecular Biochemicals). Quantitative RT-PCR with specific oligonucleotides was performed with SYBR Green PCR Master Mix (Applied Biosystems) using the ABI 5700 Sequence Detection System (Perkin Elmer) and amplification protocol for the ABI 5700 Sequence Detection System. […] Results were analyzed with the ABI 5700 Sequence Detection System v.1.3 after establishing the reaction efficiency for each primer pair. Quantification using the delta-CT method was carried out.
Mice were either treated intraperitoneally with 4× lipopolysaccharide (LPS from Salmonella abortus equi S-form (ENZO Life Science), 1 μg per gram body weight) or 4×LPS (1 μg per gram body weight) plus 4×PSA-20 (1 μg per gram body weight) or 4×PBS. […] Mice were analyzed 24 hours after the last application.
Gene transcripts for TNF-alpha were determined from the total brain tissue by qRT-PCR at 24 hours after the last application.

[3] = system: humanized Siglec-11 transgenic mice or littermate control mice; assay: Laser-induced animal model of macular degeneration, intravitreal injection; type: in vivo
From the text: An animal model of macular degeneration was induced by laser technology. Experimental damage of the mouse retina using a laser is a well-accepted animal model for age-related macular degeneration. Laser coagulation and direct damage of Bruch's membrane rapidly lead to microglia and complement activation and induce vascular leakage. Fluorescence angiography is an established method to detect vascular leakage in the retina.
Humanized Siglec-11 transgenic mice (Wang Y, 2009, dissertation, University Bonn, uniform resource name: urn:nbn:de:hbz:5N-18095) or littermate control mice were used in this experiment.
Three argon laser coagulation spots were induced (125 mW, 100 ms, […], Viridis, Quantel Medical, France) in the retina of the mice. Directly afterwards the mice were injected intra-vitreally with PSA-20 (3 μg/per eye) or a PBS vehicle control.
Retinal tissue was analyzed 48 hours after the laser lesion by immunohistochemistry. Therefore, whole mount immunostaining was performed with a polyclonal rabbit-anti-ionized calcium-binding adapter molecule 1 (Iba1) antibody followed by fluorescein (FITC)-conjugated secondary antibody directed against rabbit immunoglobulin (IgG). Confocal images of the inner plexiform layer from the retina were collected and the percentage of the activated amoeboid microglia in relation to the total Iba1-positive microglia was determined in and outside the laser lesion of the PSA-20 treated Siglec-11 and the control mice.
To determine the inflammation mediated vascular leakage, fluorescein angiography was performed 48 hours after laser coagulation lesion of the retina. In detail, anesthetized animals were injected intraperitoneally with 0.1 ml 2.5% fluorescein in 0.9% sterile NaCl. Late stage angiography pictures were taken eleven minutes after fluorescein injection on a Spectralis HRA2 retina angiograph (Heidelberg Engineering) to visualize vessel leakage. Angiography pictures were exported from Heidelberg Eye Explorer Software as jpeg files. Pixel intensities of 6 regions of interest (roi) per picture were quantified with ImageJ and background fluorescence was subtracted.
At 48 hours before angiography, three argon laser coagulation spots were induced (125 mW, 100 ms, 100 μm, Viridis, Quantel Medical, France) in the retina of the Siglec-11 transgenic or littermate control mice. Mice were injected intra-vitreally with PSA-20 (3 μg/per eye) or a PBS vehicle control. […] Statistically significant groups were determined by One-Way ANOVA and Student's t-test. […]
Again, the laser damage of retinas was induced in the humanized Siglec-11 transgenic mice or littermate controls as described above. […] Single data points indicate individual eyes analyzed. Data were analyzed by ordinary one-way ANOVA followed by Tukey's multiple comparisons test. […]

For poly-(α(2→8)Neu5Ac)n [PSA-20], the “neurotoxic effect of human microglia on human neurons (relative neurite length)” value [1] was “completely prevented the neurotoxic effect”, the “gene transcripts for TNF-alpha in the spleen” value [2] was “No change” and the “gene transcription levels of TNF-alpha in the brain tissue” value ([2]; Siglec-11 transgenic mice) was “reduced gene transcription levels”. For the same substance, the “Microglial activation (activated amoeboid microglia to total Iba1-positive microglia)” value ([3]; Siglec-11 transgenic mice, 3 μg/per eye intravitreal, 48 hours after laser lesion, FIG. 7D) was “significantly reduced”, the “vascular leakage (fluorescein angiography)” value ([3]; Siglec-11 transgenic mice, 3 μg/per eye intravitreal, 48 hours after laser, FIG. 7E) was “significantly reduced vascular leakage” and the “microglial Iba1 immunoreactivity” value ([3]; normal mice, 3 μg/per eye intravitreal, 48 hours after laser lesion) was “No effect”. For the same substance, the “vascular leakage (fluorescein angiography)” value ([3]; repeat, at least 8 retinas per group, Siglec-11 transgenic mice, 48 hours, vehicle 117.8+/−7.8, FIG. 7G) was 84.07+/−8.2.
